In PubChem BioAssay (NCI) one finds TGI and GI50 data, which are given here for 32 compounds.

Holding throughout (experiment): NCI tumour cell line growth inhibition, 48 h
For assay [1], the system named is 786-0 renal.
Assay [2] deals with ACHN renal.
The test system of assay [3] is CAKI-1 renal.
Assay [4] has as its system COLO 205 colon.
Assay [5] deals with HL-60(TB) leukemia.
In assay [6] the test system is MDA-MB-231 breast.
In assay [7] the test system is OVCAR-3 ovarian.
For assay [8], the system named is SK-MEL-28 melanoma.
Assay [9] relates to SK-OV-3 ovarian.
For assay [10], the system named is HS 578T breast.

Values joined by “and” are separate entries in the source; they are usually repeats but may differ in a detail not shown here. Identical values can stand only once.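 Each compound was tested at five concentrations against cells in 96-well plates for 48 hours. At the GI50, growth is halved. TGI: total growth inhibition.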

Regarding `CC(C(N)=O)N(C)C(=O)c1cnc2ccccc2c1` (configuration not stated), the TGI in [1], in [2], in assay [3], in assay [4], in assay [5] and in [6] was more than 100 µM in each case. For the same compound, the TGI in assay [7] and in assay [8] was more than 100 µM throughout.

For `Cn1nc(-c2ccccc2)c(C(=O)/C=C/c2ccc(Cl)cc2)c(N2CCCC2)c1=O`, the TGI in assay [1] turned out to be 13.5 µM; in assay [2] it was 3.34 µM; in assay [3] it was 22.2 µM; in assay [4] it was 4.07 µM; in [5] it was 4.97 µM; in [8], 13.8 µM. In assay [9], the TGI stood at 18.8 µM.

For the compound `COc1ccc2c(c1)c1c3n2CCNN=C3CCC1`, the TGI was more than 100 µM in assay [1]; more than 100 µM in [2]; more than 100 µM in [3]; more than 100 µM in [4]; more than 71.4 µM in [5]; more than 100 µM in assay [7]. Moreover, the TGI in assay [8] and in assay [9] was more than 100 µM in each case.

In the case of `NNC(=O)C(O)C(O)C(=O)NN` (configuration not stated), the TGI in [1], in [2], in assay [3], in assay [4], in assay [10] and in [6] was more than 100 µM in each case. The TGI in [7], in assay [8] and in assay [9] was more than 100 µM in each case.

For the compound `C/C(=N\NS(=O)(=O)c1ccc([N+](=O)[O-])cc1)c1ccc[n+]([O-])n1`, the TGI is 15.6 µM in [1]; more than 21.7 µM in [2]; 6.99 µM in [3]; 6.56 µM in assay [4]; more than 22.6 µM in assay [5]; 4.95 µM in assay [7]. In assay [9], the TGI is 7.24 µM.

Take `[CH3][Sn]1([CH3])[O]CC(COc2cc(Cl)c(Cl)cc2Cl)[O]1` (configuration not stated): the GI50 in assay [1] was more than 100 µM; in assay [2] it was 85.5 µM; in assay [3] it was 28.1 µM; in assay [4], more than 100 µM; in [5], more than 100 µM; in [7], 42.8 µM. The figures for the GI50 in assay [8] and in assay [9] were more than 100 µM and 85.6 µM, respectively. The TGI was more than 100 µM in [1]; more than 100 µM in assay [2]; 89.3 µM in [3]; more than 100 µM in assay [4]; more than 100 µM in assay [5]; more than 100 µM in assay [7]. The TGI in assay [8] and in assay [9] was more than 100 µM each time.

Regarding `O=C(/C=C/c1ccccc1)CCC1C(=O)NC(=S)NC1=O`, the TGI in assay [1], in [2], in assay [3], in assay [4], in assay [10] and in assay [6] was more than 100 µM throughout. Also, the TGI in [7], in [8] and in [9] was more than 100 µM in each case.

Turning to `CCCCNC1=C(C(=O)OCC)/C(=N/NC(=O)c2ccccc2O)CO1`, the TGI in assay [1], in assay [3], in assay [4], in assay [5], in [7] and in [8] was more than 100 µM throughout. Besides, the TGI in assay [9] is more than 100 µM.

For the compound `COc1ccc(C)cc1C1CCC(=O)O1` (configuration not stated), the TGI in assay [1], in assay [2], in [4], in [5], in assay [7] and in [8] was more than 100 µM each time. This compound also showed a TGI in assay [9] of more than 100 µM.

As to `CC(C)(C)Sc1nnc(SC(C)(C)C)c2c(=O)[nH]nc(SC(C)(C)C)c12`, the TGI in [1] came to 22.3 µM; in assay [3] it was 16.3 µM; in assay [4], 25.2 µM; in assay [5], 16.1 µM; in assay [7], 22.6 µM; in assay [9], 32.5 µM.

Consider `O=C1C=Cc2ncccc2C1=O`, for which the TGI in assay [1] was determined as 29.1 µM; in assay [2], 50.6 µM; in assay [3], 48.9 µM; in assay [4], 32.5 µM; in [5], 36.1 µM; in [7], 46.9 µM. Moreover, the values for the TGI in [8] and in [9] were 48.1 µM and more than 61.7 µM, respectively.

With `C#CCOCn1cnc2ncnc(N)c21`, the TGI in assay [1], in assay [2], in assay [3], in assay [4], in assay [7] and in [8] was more than 100 µM each time. In assay [9], this compound returned a TGI of more than 100 µM.

`CC(=O)c1c2c(cc3c1CC1(C3)Cc3cc4c(c(C(=O)O)c3C1)CCC4)CCC2` (configuration not stated): the TGI is more than 100 µM in [1]; more than 100 µM in assay [2]; more than 100 µM in assay [3]; 68.1 µM in [4]; 35.6 µM in [5]; 47.2 µM in [7]. This compound also registered a TGI in assay [8] of more than 100 µM.

In the case of `COc1cc(C(C#N)NNc2nc(C)cc(=O)[nH]2)cc(OC)c1OC` (configuration not stated), the TGI in assay [1], in [2], in assay [3], in assay [4], in assay [5] and in assay [7] was more than 100 µM throughout. The TGI in assay [8] and in [9] was more than 100 µM each time.

As for `O=S1(=O)c2ccccc2N=C(c2ccccc2Cl)CC1c1ccc(F)cc1` (configuration not stated), the TGI is 30.5 µM in [1]; 32.6 µM in assay [2]; 34.3 µM in assay [3]; 40.3 µM in assay [4]; 45.4 µM in [5]; 27.4 µM in assay [7]. The TGI in assay [8] came to 32.7 µM; in assay [9], 89 µM.

For the compound `CC(C)N1C(C)[C@@H](c2ccccc2)O[P@]1(=O)CC1=CCCCC1` (some centres not stated), the TGI in [1] is more than 100 µM; in assay [2], more than 100 µM; in [4], more than 100 µM; in assay [5] it was 57.4 µM; in assay [7], more than 100 µM; in assay [8], more than 100 µM. This compound also returned a TGI in assay [9] of more than 100 µM.

As for `Cc1ccc2nc(NC(=O)C(=O)CC(=O)c3cccc4ccccc34)sc2c1`, the TGI in [1] is 39.3 µM; in assay [2], more than 100 µM; in assay [3] it was 78 µM; in [4], more than 100 µM; in [5], more than 100 µM; in assay [7], 49.6 µM. Besides, the TGI is more than 100 µM in assay [8] and 36.6 µM in assay [9].

For `N#CC(C(=O)CCCC(=O)Nc1ccc(Cl)cc1Cl)c1ccc(Cl)cc1` (configuration not stated), the TGI in assay [1], in [2], in assay [3], in assay [4], in assay [5] and in assay [7] was more than 100 µM in each case. Besides, the TGI in [8] and in assay [9] was more than 100 µM in each case.

Turning to `CC(C)[Si](OCC1CC(C#N)OC(C)(C)O1)(C(C)C)C(C)C` (configuration not stated), the TGI in assay [1] amounted to 35.2 µM; in assay [2], 29.4 µM; in assay [3] it was 69.5 µM; in [4], 31.7 µM; in [5] it was 29.3 µM; in assay [7] it was 29.4 µM. The TGI in assay [8] was more than 100 µM; in assay [9], 73.4 µM.

As to `Cc1noc(/N=C2\C=C(Nc3onc(C)c3C)C(=O)c3ccccc32)c1C`, the TGI in assay [1] was more than 100 µM; in [2], more than 100 µM; in assay [3], more than 100 µM; in [4], more than 100 µM; in assay [5] it was more than 100 µM; in assay [7], 83 µM. Further, the TGI in [8] and in [9] was more than 100 µM each time.

Consider `N#C/C(=C\c1ccc2[nH]ccc2c1)C(=O)c1ccc(O)c(O)c1`, for which the TGI in assay [1] is more than 100 µM; in assay [2], more than 100 µM; in assay [3], more than 100 µM; in assay [4] it was more than 100 µM; in assay [5], more than 95.1 µM; in assay [10], more than 100 µM. Also, the values for the TGI in [7], in [8] and in [9] were 79.3 µM, more than 100 µM and more than 100 µM, respectively.

`O=CCCCC(Sc1ccccc1)Sc1ccccc1`: the TGI in assay [1] is 46 µM; in assay [2], 38.4 µM; in assay [3], more than 100 µM; in assay [4], 57.9 µM; in assay [5], 78.3 µM; in assay [7] it was 68 µM. The TGI is 32 µM in assay [8] and 59.4 µM in assay [9].

In the case of `COc1ccc(NC(=O)C2C(=O)N(c3ccc(OC)cc3)C(=O)/C2=N\NC(N)=O)cc1` (configuration not stated), the TGI in assay [1] is 49.3 µM; in assay [2], 82.5 µM; in assay [3] it was more than 100 µM; in assay [4], more than 100 µM; in assay [7], more than 100 µM; in assay [8] it was more than 100 µM. For the same compound, in [9], the TGI is 49 µM.

As for `CC(=O)NC(CCCN(Cc1ccccc1)C(=O)N(C)N=O)C(=O)NCc1ccccc1` (configuration not stated), the TGI in [1], in [2], in assay [3], in assay [4], in [7] and in assay [8] was more than 100 µM throughout. Also, the TGI in assay [9] is more than 100 µM.

As to `CCOC(=O)CC(NC(=O)c1ccc(N=NN(C)C)cc1)C(=O)OCC` (configuration not stated), the TGI in assay [1], in assay [2], in [3], in assay [4], in [5] and in [7] was more than 100 µM throughout. In addition, the TGI in [8] and in assay [9] was more than 100 µM throughout.

For `c1ccc(-c2nnc3nn4c(-c5ccccc5)cnnc4c3c2-c2ccccc2)cc1`, the TGI was 25.8 µM in assay [1]; more than 100 µM in assay [2]; 45.6 µM in [3]; more than 100 µM in [5]; more than 100 µM in assay [7]; more than 100 µM in assay [8].

Regarding `O=C(/C=C/C1C(=O)NC(=O)NC1=O)CC(=O)C(=O)Nc1cc(Cl)c(Cl)cc1Cl`, the TGI in [1], in [2], in assay [3], in assay [4], in [5] and in [7] was more than 100 µM each time. Further, the TGI in assay [8] and in assay [9] was more than 100 µM in each case.

Regarding `CC(=O)[C-](C(C)=O)c1ccccc1.CC(=O)[C-](C(C)=O)c1ccccc1.CC(=O)[C-](C(C)=O)c1ccccc1.[Cl-].[Zr+4]`, the GI50 in assay [1] was 38.7 µM; in assay [3], more than 100 µM; in assay [4], more than 100 µM; in [5], more than 100 µM; in [7], more than 100 µM; in assay [9], more than 100 µM. Also, the TGI in assay [1], in assay [3], in assay [4], in assay [5], in assay [7] and in assay [9] was more than 100 µM in each case.

As to `S=c1c2ccccc2c(=S)n2n1CC=CC2`, the TGI in assay [1], in assay [2], in assay [3], in [4], in [5] and in assay [7] was more than 100 µM throughout. Besides, the TGI in assay [8] and in assay [9] was more than 100 µM each time.

As to `CCc1cc(Cc2ccc(C)c(NC(=O)C(=O)C3C(=O)NC(=O)NC3=O)c2CC)cc(C)c1NC(=O)C(=O)C1C(=O)NC(=O)NC1=O`, the TGI in assay [1], in assay [2], in [3], in assay [4], in assay [5] and in assay [7] was more than 100 µM throughout. The TGI in [8] and in assay [9] was more than 100 µM in each case.

In the case of `Cc1c2ccncc2c(C)c2c1[nH]c1ccc(Cl)cc12`, the TGI in assay [1] is 2.27 µM; in assay [2], 13.1 µM; in assay [4], 9.41 µM and 15 µM; in assay [7] it was 5.71 µM and 16.6 µM; in assay [8], 13.3 µM and 3.67 µM; in [9], 17.9 µM and 31.1 µM. Moreover, the GI50 in [3] was 0.602 µM and 5.24 µM; in assay [4], 3.09 µM; in [5], 2.62 µM; in [7], 4.62 µM; in [8], 1.93 µM; in [9] it was 12.2 µM.

For `CC1=CC(=O)NP(=O)(C23CC4CC(CC(C4)C2)C3)N1` (configuration not stated), the TGI in assay [1], in [2], in assay [3], in [4], in assay [5] and in [7] was more than 100 µM throughout. Moreover, the TGI in [8] and in assay [9] was more than 100 µM throughout.
